Assay results published in PMC6235670, “An mTOR Signaling Modulator Suppressed Heterotopic Ossification of Fibrodysplasia Ossificans Progressiva” (Stem Cell Reports, 2018).

Legend:
[1] = test system: FOP-iMSCs; assay: Microarray / pathway analysis of activin A-induced chondrogenesis of FOP-iMSCs; assay type: cell-based, human; details: 100 nM, activin A, 7 days
Protocol: Microarray experiments. 2D chondrogenic induction was performed in FOP-iMSCs stimulated with or without 100 ng/mL Activin-A, TAK 165, CP-724714 and Lapatinib. Seven days after incubation, mRNA was extracted. RNA was reverse transcribed, biotin-labeled and hybridized to GeneChip Human Gene 1.0 ST Expression Array, which was subsequently washed and scanned according to the manufacturer’s instructions (Affymetrix). Raw CEL files were imported into GeneSpring GX 12.6.1 software (Agilent Technologies), and expression values were calculated with the RMA16 algorithm. Pathway analysis was performed by Ingenuity pathway analysis (Qiagen). […]

[2] = test system: healthy control iPSC (414C2)-derived iMSCs; assay: Wound healing assay
[3] = test system: ATDC5/FOP-ACVR1 cells; assay: ALP assay (HTS and dose-response) in ATDC5/FOP-ACVR1; assay type: cell-based, mouse; details: Mus musculus, same protocol as HTS (72 h)
[4] = test system: FOP-iMSCs; assay: 2D chondrogenic induction of FOP-iMSCs with activin A (GAG, Alcian blue); assay type: cell-based, human
[5] = test system: mTOR signaling (p-S6); assay: p-S6 western blotting in FOP-iMSCs cultured with 10% FBS; assay type: cell-based, human; details: 100 nM, 2 hr
Protocol: time point t = 24 h from t = 0 h, and relative cell migration was expressed as the ratio of the absolute cell migrations between the experimental and control groups by using CL-Quant software (Nikon Corp.).
Quantitative PCR analysis. Total RNA was purified with RNeasy Kit (Qiagen) and treated with DNase -one Kit (Qiagen) to remove genomic DNA. Total RNA (0.3 µg) was reverse transcribed for single-stranded cDNA using random primers and Superscript III reverse transcriptase (Thermo Fisher Scientific) according to the manufacturer’s instructions. Quantitative PCR was performed with Thunderbird SYBR qPCR Mix (TOYOBO) and analyzed with the StepOne real-time PCR system (Applied Biosystems). […]
Microarray experiments. 2D chondrogenic induction was performed in FOP-iMSCs stimulated with or without 100 ng/mL Activin-A, TAK 165, CP-724714 and Lapatinib. […] Raw CEL files were imported into GeneSpring GX 12.6.1 software (Agilent Technologies), and expression values were calculated with the RMA16 algorithm. […]
Protein bands were detected with ECL Prime Western Blotting Detection Reagent (GE Healthcare) and visualized using BIO-RAD Molecular Imager® Chemi-DocTM XRS+ with Image LabTM software (Bio-Rad). […]
GAG value. The GAG content was quantified in pellets with the Blyscan Glycosaminoglycan Assay Kit (Biocolor). The DNA content was quantified using PicoGreen dsDNA Quantitation Kit (Thermo Fisher […]

[6] = AlamarBlue viability assay in ATDC5/FOP-ACVR1; details: mouse
Protocol: Generation of ATDC5 stably expressing ACVR1. WT - or FOP-ACVR1 was inserted into doxycycline (Dox)- […]
(KW111/WT-ACVR1 or KW111/FOP-ACVR1). KW111/WT-ACVR1 or KW111/FOP-ACVR1 and PBaseII […]
FuGeneHD® (Promega) according to the manufacturer’s protocol, and the neomycin- resistant population (500 µg/mL) was selected. Further selection was performed by selecting a mCherry high positive population (< 5%) after six hours of Dox treatment, sorting it with fluorescent-activated cell sorting (FACS) using AriaII (BD) according to the manufacturer’s protocol, and designating it as ATDC5/WT-ACVR1 or ATDC5/FOP-ACVR1.
KW111 included PB, active transposable PB elements; TRE-mCMVP, Tetracycline Response Element and a minimal CMV promoter; rtTA, reverse tetracycline-controlled transactivator. PBaseII was an expression plasmid vector containing the PB transposase cDNA with optimized codon usage to human under the control […]
HTS campaign and follow-up screens. ATDC5/FOP-ACVR1 cells were plated in 96-well white plates (2,000 cells/well/40 µ L, Corning) in DMEM/F-12 supplemented with 5% (v/v) FBS. […]
37 °C under 5% CO2. After 3 days incubation, Alkaline Phosphatase activity (ALP) or AlamarBlue activity was measured using Amplite™ Colorimetric Alkaline Phosphatase Assay Kit (AAT Bioquest) or alamarBlue® Cell Viability Reagent (Thermo Fisher Scientific) according to the manufacturer’s protocol, respectively. T h e […]
was measured on POWERSCAN4 (DS Pharma Biomedical) or EnVision® Multilabel Reader (PerkinElmer).
Inhibitory effects of the screened compounds are given as percent inhibition, which was calculated using the following equation: (1-([Abs of compound] - [Abs of Min])/([Abs of Max] - [Abs of Min]))× 100, where [Abs of Max] and [Abs of Min] are the mean Abs of DMSO control and 1 µM DMH-1, respectively. The Z’ factor, which is widely used as a measure of the assay quality of each plate, was calculated using the following equation: Z’ factor = 1 - 3 × ([SD of Max] + [SD of Min])/([Abs of Max] - [Abs of Min]) (SI Appendix, Fig.
The S/B (signal-to-background) ratio was calculated using the following equation: ([Abs of Max]/[Abs of Min]) (SI Appendix, Fig. S3B).
Using ATDC5/FOP-ACVR1 cells, we performed a first screening (n=2; test compounds = 1 µM, Fig. […]

[7] = test system: mTOR signaling (p-S6); assay: p-S6 western blotting during chondrogenic induction of FOP-iMSCs with activin A; assay type: cell-based, human; details: 1 μM
Protocol: Western blotting. SDS- PAGE and blotting with whole-cell lysates were performed by standard procedures.
Protein bands were detected with ECL Prime Western Blotting Detection Reagent (GE Healthcare) and visualized using BIO-RAD Molecular Imager® Chemi-DocTM XRS+ with Image LabTM software (Bio-Rad).
All data (relative intensity) were corrected by β-actin.
Antibodies for western blotting and immunostaining.
N ame Company Cat. No Concentration
Human Activin RIA/ALK-2 Antibody R&D Systems) AF637 1:100
Anti-human Vimentin antibody Abcam ab16700 1:40
Collagen I Antibody Novus NB600- 1:100
Anti-rabbit IgG, HRP-linked Antibody Cell Signaling #7074 1:10000 […]
2nd Goat anti-Rabbit IgG (H+L) Secondary Antibody, Invitrogen A-11008 1:100 antibody Alexa Fluor® 488 conjugate
Goat anti-Rabbit IgG (H+L) Secondary Antibody, Invitrogen A-21428 1:500

## FC(F)(F)c1ccc(/C=C/c2nc(COc3ccc(CCCCn4ccnn4)cc3)co2)cc1 [TAK 165, mubritinib]
[1]
  transcriptome: genes involved in chondrogenesis or osteogenesis: affected genes that are involved in chondrogenesis or osteogenesis
[2]; 10 nM rapamycin or 1 µM TAK165, 24 h
  Relative cell migration (wound healing assay) vs DMSO: n.s.
[2]; 1 µM, 24 h
  wound healing in vitro: did not impair
[3]
  IC50: 39 nM
[4]; 1 μM, activin A, 7 days
  inhibition of glycosaminoglycan (GAG) production: potent inhibition
[4]; activin A, 7 days
  suppression of chondrogenic induction (GAG), dose dependence: dose-dependent
[4]; compared with other HTS hits
  Alcian blue staining: obviously different effects
[5]
  p-S6 levels (direct mTOR inhibition): did not
[6]
  viability at 3 days, 10 µM: 117%
[7]; 24 hr
  p-S6 after 24-hr stimulation: no effects
[7]; 7 days
  p-S6 after 7 days of stimulation: dramatically decreased
